# Reference: patent US20130203726A1, “FtsZ INHIBITORS AS POTENTIATORS OF BETA-LACTAM ANTIBIOTICS AGAINST METHICILLIN-RESISTANT STAPHYLOCOCCUS” (priority 2010, published 2013)
# Where two headings read alike, the source gives them in different places.
# Assays:
# MRSE CLB 26329 = assay: Checkerboard assay (MIC, FIC index) against MRSE; assay type: cell-based, S. epidermidis
# From the text: (§1) The checkerboard method is the technique most frequently used to assess antimicrobial combinations in vitro. See Antibiotics in Laboratory Medicine Victor Lorian ed. 2005. The term. checkerboard refers to the pattern of microtiter wells formed by multiple dilutions of the two antimicrobials being tested in concentrations equal to, above and below their minimal inhibitory concentrations (MICs) against the organisms being tested. The checkerboard consists of columns in which each well contains the same amount of Drug A being two-fold diluted along the x-axis and rows in which each well contains the same amount of Drug B being two-fold diluted on the Y-axis. The result is that each well contains a unique combination of the two drugs being tested. Also tested is the antimicrobial activity of each agent singly.
# (§2) The 96 well U-bottom polypropylene microtiter plates (Fisher Scientific, Pittsburgh, Pa.) were inoculated with 90 μl of bacterial cells (grown in Tryptic Soy Broth at 37° C. for 18 hours with rotary shaking) diluted in cation-adjusted Mueller Hinton broth to a final concentration of ˜5.5×10^5 CFU/mL.
# (§3) β-lactam antibiotics were two-fold serially diluted along the Y-axis of 96-well U-bottom microtiter dishes (Fisher Scientific, Pittsburgh, Pa.) in microbiological growth media [brain heart infusion broth (BBL)]. FtsZ inhibitors were serially diluted along the X-axis of 96-well U-bottom microtiter dishes in microbiological growth media. The plates were inoculated with bacterial cells (grown in Trypticase Soy Broth at 37° C. for 18 hours with rotary shaking) to a final concentration of ˜5×10^5 CFU/mL. Test plates were incubated stationery at 37° C. for 22-24 hours.
# (§4) The FIC index is most commonly used to report results of studies with antimicrobial combinations. In this method, the FIC for each drug is derived by dividing the concentration of that drug necessary to inhibit growth in a given combination by the MIC of the test organism for that drug alone. The FTC index (FICI) is then calculated by summing the separate FICs of the drugs present in that test well. Synergism is defined as an FTC index of 0.5.
# MRSA COL [1] = assay: MRSA deep thigh infection model in neutropenic mice; assay type: in vivo, Staphylococcus aureus; conditions: for reduction of bacterial burden per thigh: 24 hr
# Method: Female mice (20-25 g) were rendered neutropenic via intraperitoneal injection of cyclophosphamide (Mead Johnson Pharmaceuticals) four days (150 mg/kg) and one day (100 mg/kg) prior to experimental infection. Neutropenic mice were infected on Day 0 via intramuscular thigh injection of 0.1 ml containing ˜1-2×10^6 CPU Staphylococcus aureus (strain B, MRSA COL) from freshly grown culture broth. Two hours post thigh infection, mice were randomized and groups were administered increasing doses of PC190723 (50, 100, 200 mg/kg orally (p.o.), t.i.d ([…]); equivalent to 150, 300, and 600 mg/kg/24 hr) in the absence or presence of imipenem/cilastatin (10 mg/kg/50 mg/kg subcutaneously (s.c.), t.i.d. ([…]); equivalent to 30 mg/kg/24 hr and 150 mg/ kg/24 hr). Assay control groups included non-infected, vehicle-treated mice, vehicle-treated baseline infected (t=0 hr) mice, vehicle-treated 24 hr infected (t=24 hr) mice, and linezolid ((Zyvox IV solution, Bell Medical; 40 mg/kg orally (p.o.), b.i.d. ([…]) equivalent to 80 mg/kg/24 hr).
# Twenty four hours post the initiation of therapy, mice were sacrificed, thighs aseptically removed, placed in 4 ml sterile phosphate buffered saline (Fisher Scientific), and homogenized using a Polytron (Brinkmann Instruments). Homogenates were serially 100-fold diluted in 9.9 ml sterile saline and plated on Mannitol Salt Agar plates. Plates were incubated at 35° C. for 48 hours and colony forming units (CFU) of bacteria remaining per thigh were determined.
# MRSA COL [2] = assay: Checkerboard assay (MIC, FIC index) against MRSA; assay type: cell-based, S. aureus
# From the text: as §1, §2, §3, §4
# [3] = test system: MRSA COL strains bearing xylose-regulated antisense fragments corresponding to FtsZ, FtsA, or FtsW; assay type: cell-based, Staphylococcus aureus; conditions: 50 mM xylose (antisense induced) versus no xylose, FtsZ-AS
# Method: See Forsyth et al., 2002, Mol. Microbial 43:1387-1400 for details concerning plasmid and antisense interference construction. Strains were grown overnight in Luria Bertani (LB) Miller broth at 37° C. containing 34 μg/ml chloramphenicol. Assay plates were prepared by seeding 10^7 cells/ml of each culture into 48° C. cooled LB Miller agar containing 34 μg/ml chloramphenicol. To partially repress FtsZ expression, 50 mM xylose was supplemented to plates. This antisense inducer concentration modestly impairs growth of each strain equally, reflecting a 20% inhibitory growth concentration (i.e., xylose IC20˜50 mM).
# The following antibiotics were then spotted on the surface of the plates: carbapenems, imipenem (12.8 μg) and ertapenem (51.2 μg); cephalosporins, cefepime (102.4 μg), ceftazidime (102.4 μg), and ceftriaxone (102.4 μg); and the β-lactam piperacillin (combined with the […] in a 8:1 molar ratio (25.6 μg). As a control, MRSA COL was identically tested but under conditions where no xylose was supplemented into the medium (i.e., non-repressed FtsZ) as well as by identically processing the MRSA COL strain transformed with pEPSA5 but lacking an antisense fragment (data not shown). As a control for the specificity of ftsZ, ftsA, and ftsW mutant susceptibility to β-lactams, the non-β-lactam cell wall antibiotic, vancomycin (0.8 μg) was additionally spotted. Plates were then incubated at 37° C. for 16 h and photographed.
# The effect FtsZ, FtsA, or FtsW imparts on MRSA susceptibility to the above antibiotics was determined by comparing their zone of inhibition between plates supplemented with antisense inducer (50 mM xylose) versus those without xylose. Differential antibiotic zones of inhibition between FtsZ, FtsA, and FtsW antisense bearing strains grown under xylose induced versus non-induced conditions reflect Fts gene-dependent restoration of MRSA COL susceptibility to β-lactams.
# [4] = FtsZ inhibitor in combination with cefazolin
# [5] = FtsZ inhibitor in combination with cefepime, lowest achievable for PC190723
# [6] = FtsZ inhibitor in combination with amoxicillin, MRSA COL
# [7] = FtsZ inhibitor in combination with cefazolin, MRSA COL
# [8] = FtsZ inhibitor in combination with cefdinir, MRSA COL
molecule,measurement,setting,value
NC(=O)c1c(F)ccc(OCc2nc3cc(Cl)cnc3s2)c1F [PC190723],FIC of the FtsZ inhibitor at which synergy with β-lactams was shown,MRSE CLB 26329,0.25
same,lower levels of imipenem required to inhibit growth,MRSE CLB 26329; FtsZ inhibitor at FIC≦0.25 combined with imipenem,32 fold
same,FICI,MRSE CLB 26329; [4],0.31
same,FICI,MRSE CLB 26329; [5],0.28
same,FICI,MRSE CLB 26329; FtsZ inhibitor in combination with ertapenem at its clinical breakpoint (8 μg/ml),0.5
same,FICI,MRSE CLB 26329; FtsZ inhibitor in combination with imipenem at its clinical breakpoint (4 μg/ml),0.31
same,MIC,"MRSE CLB 26329; Staphylococcus epidermidis, agent alone, read-out: minimal inhibitory concentration (MIC)",1 µg/mL
same,MIC,"MRSE CLB 26329; agent alone, FIG. 5 legend, unit not given",1.0
same,antibacterial activity compared with linezolid,"MRSA COL [1]; 10 mg/kg imipenem + 200 mg/kg PC190723, linezolid 40 mg/kg p.o. b.i.d.",approaching linezolid-like antibacterial activity
same,reduction of bacterial burden per thigh,"MRSA COL [1]; PC190723 50 mg/kg p.o. t.i.d. + imipenem 10 mg/kg s.c. t.i.d., FIG. 7A",−0.4 Log 10 CFU
same,reduction of bacterial burden per thigh,"MRSA COL [1]; PC190723 100 mg/kg p.o. t.i.d. + imipenem 10 mg/kg s.c. t.i.d., FIG. 7A",−1.2 Log 10 CFU
same,reduction of bacterial burden per thigh,"MRSA COL [1]; PC190723 100 mg/kg p.o. t.i.d. + imipenem 10 mg/kg s.c. t.i.d., FIG. 7B",−1.9 Log 10 CFU
same,reduction of bacterial burden per thigh,"MRSA COL [1]; PC190723 200 mg/kg p.o. t.i.d. + imipenem 10 mg/kg s.c. t.i.d., FIG. 7A",−3.1 Log 10 CFU
same,reduction of bacterial burden per thigh,"MRSA COL [1]; PC190723 200 mg/kg p.o. t.i.d. + imipenem 10 mg/kg s.c. t.i.d., FIG. 7B",−2.6 Log 10 CFU
same,effect on MRSA COL bacterial burden in the thighs,"MRSA COL [1]; monotherapy over 24 hr, imipenem 10 mg/kg s.c. t.i.d. or PC190723 50, 100, 200 mg/kg p.o. t.i.d., neutropenic mice",did not significantly alter
same,lower levels of imipenem required to inhibit growth,"MRSA COL [2]; FtsZ inhibitor at FIC≦0.25 combined with imipenem, MRSA",16 fold
same,FICI,MRSA COL [2]; [6],0.53
same,FICI,MRSA COL [2]; [7],0.38
same,FICI,MRSA COL [2]; [8],0.31
same,FICI,"MRSA COL [2]; FtsZ inhibitor in combination with ertapenem at its clinical breakpoint (8 μg/ml), MRSA",0.5
same,FICI,"MRSA COL [2]; FtsZ inhibitor in combination with imipenem at its clinical breakpoint (4 μg/ml), MRSA",0.31
same,FIC of the FtsZ inhibitor at which synergy with β-lactams was shown,MRSA COL [2]; MRSA,0.25
same,MIC,"MRSA COL [2]; Staphylococcus aureus, agent alone, MRSA, read-out: minimal inhibitory concentration (MIC)",1 µg/mL
same,MIC,"MRSA COL [2]; agent alone, MRSA, FIG. 5 legend, unit not given",1.0
same,reduction of the effective inhibitory concentration of amoxicillin,"MRSA COL [2]; combined with PC190723 at FIC=0.5, MRSA",~32 fold
CC[C@H]1OC(=O)[C@H](C)[C@@H](O[C@H]2C[C@@](C)(OC)[C@@H](O)[C@H](C)O2)[C@H](C)[C@@H](O[C@@H]2O[C@H](C)C[C@H](N(C)C)[C@H]2O)[C@](C)(O)C[C@@H](C)CN(C)[C@H](C)[C@@H](O)[C@]1(C)O [azithromycin],"change of susceptibility (zone of inhibition) on partial genetic inactivation of FtsZ, FtsA or FtsW",[3],"none of the FtsZ-AS, FtsA-AS, or FtsW-AS strains demonstrated altered hypersensitivity"
C/C=C/C/C=C/CCC(=O)[C@H]1O[C@H]1C(N)=O [cerulenin],"change of susceptibility (zone of inhibition) on partial genetic inactivation of FtsZ, FtsA or FtsW",[3],"none of the FtsZ-AS, FtsA-AS, or FtsW-AS strains demonstrated altered hypersensitivity"
O=C(O)c1cn(C2CC2)c2cc(N3CCNCC3)c(F)cc2c1=O [ciprofloxacin],"change of susceptibility (zone of inhibition) on partial genetic inactivation of FtsZ, FtsA or FtsW",[3],"none of the FtsZ-AS, FtsA-AS, or FtsW-AS strains demonstrated altered hypersensitivity"
CC(=O)NC[C@H]1CN(c2ccc(N3CCOCC3)c(F)c2)C(=O)O1 [linezolid],"change of susceptibility (zone of inhibition) on partial genetic inactivation of FtsZ, FtsA or FtsW",[3],"none of the FtsZ-AS, FtsA-AS, or FtsW-AS strains demonstrated altered hypersensitivity"
COc1cc(Cc2cnc(N)nc2N)cc(OC)c1OC [trimethoprim],"change of susceptibility (zone of inhibition) on partial genetic inactivation of FtsZ, FtsA or FtsW",[3],"none of the FtsZ-AS, FtsA-AS, or FtsW-AS strains demonstrated altered hypersensitivity"
CN[C@H](CC(C)C)C(=O)N[C@H]1C(=O)N[C@@H](CC(N)=O)C(=O)N[C@H]2C(=O)N[C@H]3C(=O)N[C@H](C(=O)N[C@H](C(=O)O)c4cc(O)cc(O)c4-c4cc3ccc4O)[C@H](O)c3ccc(c(Cl)c3)Oc3cc2cc(c3O[C@@H]2O[C@H](CO)[C@@H](O)[C@H](O)[C@H]2O[C@H]2C[C@](C)(N)[C@H](O)[C@H](C)O2)Oc2ccc(cc2Cl)[C@H]1O [vancomycin],"change of susceptibility (zone of inhibition) on partial genetic inactivation of FtsZ, FtsA or FtsW",[3],"none of the FtsZ-AS, FtsA-AS, or FtsW-AS strains demonstrated altered hypersensitivity"
Zantrin Z3,lower levels of cefazolin required to inhibit growth,MRSE CLB 26329; FtsZ inhibitor at FIC≦0.25 combined with cefazolin,16 fold
same,FICI,MRSE CLB 26329; FtsZ inhibitor in combination with amoxicillin,0.28
same,FICI,MRSE CLB 26329; [4],0.31
same,FICI,MRSE CLB 26329; FtsZ inhibitor in combination with cefdinir,0.27
same,FICI,MRSE CLB 26329; [5],0.16
same,FICI,MRSE CLB 26329; FtsZ inhibitor in combination with ceftazidime,0.50
same,minimal inhibitory concentration (MIC),MRSE CLB 26329; agent alone,8−16.0 μg/ml
same,fraction of normal amoxicillin concentration needed to display MRSE efficacy,MRSE CLB 26329; amoxicillin paired with Z3,1/16
same,reduced cefdinir concentration to restore anti-MRSE activity,MRSE CLB 26329; cefdinir paired with Z3,64 fold
same,lower levels of cefazolin required to inhibit growth,"MRSA COL [2]; FtsZ inhibitor at FIC≦0.25 combined with cefazolin, MRSA",16 fold
same,FICI,MRSA COL [2]; [6],no synergy was detected
same,FICI,MRSA COL [2]; [7],0.25
same,FICI,MRSA COL [2]; [8],0.5
same,FICI,"MRSA COL [2]; FtsZ inhibitor in combination with cefepime, MRSA COL",0.25
same,FICI,"MRSA COL [2]; FtsZ inhibitor in combination with ceftazidime, MRSA COL",0.28
same,minimal inhibitory concentration (MIC),"MRSA COL [2]; agent alone, MRSA",8−16.0 μg/ml
